From patent US7226937B2, “Methods for modulating phototoxicity” (Board of Regents on Behalf of the University of Arizona, priority 2002, dated 2007)

What was measured:
HaCaT keratinocytes = assay: Proliferation inhibition of HaCaT keratinocytes with or without light; assay type: cell-based; conditions: for cell proliferation relative to a control (antiproliferative effect): 500 μM compound, HaCaT keratinocytes, no light or UVA 3.3 J/cm^2, 3 days after stimulation
Method: (§1) A series of experiments were carried out on HaCaT keratinocytes, and human CF3 fibroblasts. In these experiments, cell samples were contacted with 500 μM of pyridinoline, 500 μM of desmosine, which is an elastin constituent with a structure related to pyridinoline, or 500 μM of vitamin B6 (pyridoxine). Controls received no added compound. In one set of experiments, the cells received no external light source. In another set of experiments, they received UVA light, at 3.3 J/cm^2. The CF3 fibroblasts received solar simulated light, or “SSL,” which combines 2.3 J/cm^2 of UVA light, and 0.12 J/cm^2 of UVB light. Results are shown, in FIG. 2, in terms of percent of cell proliferation relative to a control (no added compound, no light). The measurements were taken 3 days after stimulation.
HaCaT cells, as described supra, were tested in a proliferation inhibition assay. Cell samples received equal amounts of one of the 4 compounds listed supra and were contacted with or without either solar simulated light (“SSL”) as described, supra, or UVA light alone, also as described supra.
The antiproliferative effect of the complexes described in example 4 were tested, by adding either nothing (control), BSA, or the BSA-B6 complexes, and treating or not treating samples of HaCaT keratinocytes with SSL. The BSA and BSA-B6 were added at 10 mg/ml, and the SSL was 2.3 J/cm^2 of UVA plus 0.12 J/cm^2 UVB. Three days after treatment, proliferation was measured using a Coulter counter, and standard methods.

ΦX174 plasmid = assay: Suppression of AGE-sensitized DNA (plasmid) cleavage; assay type: biochemical; conditions: for suppression of AGE-sensitized plasmid cleavage, in words: as in Table 1
From the text: It is well known that ΦX174 plasmid is cleaved only by combined action of irradiation from solar simulated light, and AGE-pigment enriched protein, which acts as a UV sensitizer. AGE-BSA (“advanced glycation end product” modified bovine serum albumin), is a model for accumulation of endogenous skin sensitizers of the type described supra. Details of the assay showing this will be found in Wondrak, et al., Photochem. Photobiol. […] This assay was used in this example.
Plasmid cleavage was visualized by running samples on 1% agarose gels, and damage, i.e., formation of relaxed, open circular forms from closed circular forms (undamaged) were quantified via densitometry, which permitted assessment of the protective effect of a compound.
AGE-cleavage proceeds in the absence of oxygen, and cannot be suppressed fully via antioxidants. As such, if a compound suppresses plasmid cleavage it cannot be simply considered an antioxidant. In contrast, inhibition via quenching of the excited state, as described supra, must be presumed.
Using this assay, a series of proline related compounds and proline were tested. The structures of the compounds are set forth at FIG. 10. FIG. 11, sets forth the results of these experiments. […]

human CF3 fibroblasts = assay: Proliferation inhibition of CF3 fibroblasts with or without solar simulated light; assay type: cell-based; conditions: 500 μM compound, no light or SSL (2.3 J/cm^2 UVA, 0.12 J/cm^2 UVB), 3 days after stimulation
Method: as §1

[1] = system: skin fibroblasts (CF3 cells); assay: Cell protection against sensitized photodamage (TB plus visible light); assay type: cell-based, human; conditions: test compound 10 mM, TB 3.3 μM, visible light 10.8 J/cm^2; for protective effect against sensitized photodamage, in words: CF3 fibroblasts; for Cell Protection against Sensitized Photodamage: ± SD, n = 3, CF3 fibroblasts counted after 3 days
Method: Cultured skin fibroblasts (CF3 cells) were exposed to photooxidative stress from ^1O2 which had formed, in situ, by dye sensitization.
In brief, 50,000 fibroblasts were seeded in a 35 mm culture dish, and then treated one day later with visible light (90 seconds exposure, providing 10.8 J/cm^2) in the presence or absence of TB (3.3 μM in Hanks buffered salt solution). Five minutes after treatment, cells were washed, with phosphate buffered saline. Test compound (10 mM) was present or absent in the culture during the radiation. After 3 days of cultivation, cells were harvested via trypsinization, and counted using a Coulter counter.
Protection was determined via the formula: […]

[2] = mixture of TB and L-Pro in PBS; visible light 36 J/cm^2

For Catalase, the “effect of catalase on vitamin B6 sensitization” value (HaCaT keratinocytes; catalase added at 400 μ/ml, cell type not stated) was “absolutely no effect” and the “% Inhibition (±SD) of AGE-sensitized DNA cleavage” value (“% Inhibition (±SD)” below) (ΦX174 plasmid; 400 u/mL) was 57.5 ± 4.7%.

For `OC[C@@H](O)[C@@H](O)[C@H](O)[C@H](O)CO` [Mannitol], the “% Inhibition (±SD)” value (ΦX174 plasmid; 20 mM) was 47.5 ± 2.5%.

In the case of `N[C@@H](CC[C@@H](O)C[n+]1cc(O)c(C[C@H](N)C(=O)O)c(CC[C@H](N)C(=O)O)c1)C(=O)[O-]` [pyridinoline], the “cell proliferation relative to a control (antiproliferative effect)” value (“cell proliferation relative to a control” below) (HaCaT keratinocytes) is reported as “antiproliferative effect, but only in the presence of light” and the “cell proliferation relative to a control” value (human CF3 fibroblasts) is reported as “antiproliferative effect, but only in the presence of light”.

In the case of `COC(=O)[C@@H]1CCCN1` [L-Pro-OCH3], the “quenching of photosensitized DNA damage (plasmid cleavage)” value (ΦX174 plasmid; test compound 100 mM, UVA 2.3 J/cm^2, AGE-BSA 10 mg/ml) is reported as “most potent of the quenchers”, the “protective effect against sensitized photodamage, in words” value [1] is reported as “very clear protective effect” and the “Cell Protection against Sensitized Photodamage” value (from here on “Cell Protection”) [1] is reported as 83.8 ± 10.9%.

With `Cc1ncc(CO)c(CO)c1O` [Vitamin B6, pyridoxine] the “cell proliferation relative to a control” value (HaCaT keratinocytes) was “dramatically more efficacy in inhibiting the cellular proliferation” and the “cell proliferation relative to a control” value (human CF3 fibroblasts) was “dramatically more efficacy in inhibiting the cellular proliferation”.

With `CC(=O)N(O)CCCCCNC(=O)CCC(=O)N(O)CCCCCNC(=O)CCC(=O)N(O)CCCCCN` [DFO] the “% Inhibition (±SD)” value (ΦX174 plasmid; 1 mM) was 51.3 ± 1.0%.

With `N[C@@H](Cc1c[nH]cn1)C(=O)O` [L-Histidine] the “% Inhibition (±SD)” value (ΦX174 plasmid; 20 mM) was 43.7 ± 0.4%.

In the case of `CC(C)(S)[C@@H](N)C(=O)O` [D-Penicillamine, D-penicillamine], the “% Inhibition (±SD)” value (ΦX174 plasmid; 20 mM) is reported as 95.7 ± 0.7% and the “suppression of AGE-sensitized plasmid cleavage, in words” value (from here on “suppression”) (ΦX174 plasmid) is reported as “effective”.

In the case of `C1CN2CCN1CC2` [DABCO], the “% Inhibition (±SD)” value (ΦX174 plasmid; 20 mM) is reported as 32.9 ± 1.1%.

For `N[C@@H](CCC(=O)N[C@@H](CS)C(=O)NCC(=O)O)C(=O)O` [GSH, glutathione], the “% Inhibition (±SD)” value (ΦX174 plasmid; 20 mM) was 100.0 ± 0.0% and the “suppression” value (ΦX174 plasmid) was “effective”.

With `O=C(O)[C@@H]1CCCN1` [L-Pro, proline] the “Cell Protection” value [1] was 6.2 ± 5.4% and the “change in HPLC peak, retention time or AUC after light exposure (inertness toward 1O2)” value [2] was “No changes were observed”.

In the case of `O=C(O)[C@@H]1CC(O)CN1` (stereo partly drawn) [4-OH-L-Pro, 4-hydroxy-L-proline], the “Cell Protection” value [1] is reported as 7.3 ± 2.5%.

For `Oc1cccnc1` [3-hydroxypyridine], the “type of light in whose presence the compound functioned” value (HaCaT keratinocytes; HaCaT cells, SSL or UVA alone) was “functioned in the presence of UVB light as a cell proliferation inhibitor” and the “effect on HaCaT cells in proliferation inhibition assay, compared to controls” value (HaCaT keratinocytes; equal amounts of compound, with or without SSL or UVA light) was “inhibitory effect”.

With `CC(=O)N[C@@H](CS)C(=O)O` [NAC, N-acetyl-L-cysteine] the “% Inhibition (±SD)” value (ΦX174 plasmid; 20 mM) was 99.4 ± 0.9% and the “suppression” value (ΦX174 plasmid) was “effective”.

In the case of `COC(=O)[C@@H]1CC(O)CN1` (stereo partly drawn) [4-OH-L-Pro-OCH3, 4-OH-L-proline methyl ester], the “protective effect against sensitized photodamage, in words” value [1] is reported as “very clear protective effect” and the “Cell Protection” value [1] is reported as 71.0 ± 13.4%.

In the case of `[N-]=[N+]=[N-].[Na+]` [NaN3], the “% Inhibition (±SD)” value (ΦX174 plasmid; 20 mM) is reported as 94.0 ± 0.5% and the “suppression” value (ΦX174 plasmid) is reported as “effective”.
